Results as given in BindingDB's records for doi:10.1016/S0960-894X(97)10088-9 (1997).

Test: Compound was evaluated for inhibitory activity against Isoleucyl-tRNA synthetase

In order of rising IC50:
1. COC(=O)CCCCCCCCOC(=O)/C=C/C[C@@H]1OC[C@H](NS(=O)(=O)CCCCl)[C@@H](O)[C@H]1O [9-{(E)-4-[(2S,3R,4R,5S)-5-(3-Chloro-propane-1-sulfonylamino)-3,4-dihydroxy-tetrahydro-pyran-2-yl]-but-2-enoyloxy}-nonanoic acid methyl ester]  100 nM
2. COC(=O)CCCCCCCCOC(=O)/C=C/C[C@@H]1OC[C@H](NS(=O)(=O)c2cccc(Cl)c2)[C@@H](O)[C@H]1O [9-{(E)-4-[(2S,3R,4R,5S)-5-(3-Chloro-benzenesulfonylamino)-3,4-dihydroxy-tetrahydro-pyran-2-yl]-but-2-enoyloxy}-nonanoic acid methyl ester]  300 nM
3. CCCCS(=O)(=O)N[C@H]1CO[C@@H](C/C=C/C(=O)OCCCCCCCCC(=O)OC)[C@H](O)[C@@H]1O [9-{(E)-4-[(2S,3R,4R,5S)-5-(Butane-1-sulfonylamino)-3,4-dihydroxy-tetrahydro-pyran-2-yl]-but-2-enoyloxy}-nonanoic acid methyl ester]  300 nM
